In ChEMBL document CHEMBL1909046, “DrugMatrix in vitro pharmacology data”:

What was measured:
[1] = biological target: Sodium-dependent noradrenaline transporter (Homo sapiens, UniProt P23975); assay: DRUGMATRIX: Norepinephrine Transporter radioligand binding (ligand: [125I] RTI-55); assay type: cell membranes, MDCK, Membrane; details: mdck; Not Active = under 50% inhibition at 10 µM
Substance-P receptor = Substance-P receptor (Homo sapiens, UniProt P25103); assay type: cell membranes, CHO, Membrane; details: cho; note: in other assays of this panel Not Active means under 50% inhibition at 10 µM
Chain of Substance-P receptor (P25103 whole entry): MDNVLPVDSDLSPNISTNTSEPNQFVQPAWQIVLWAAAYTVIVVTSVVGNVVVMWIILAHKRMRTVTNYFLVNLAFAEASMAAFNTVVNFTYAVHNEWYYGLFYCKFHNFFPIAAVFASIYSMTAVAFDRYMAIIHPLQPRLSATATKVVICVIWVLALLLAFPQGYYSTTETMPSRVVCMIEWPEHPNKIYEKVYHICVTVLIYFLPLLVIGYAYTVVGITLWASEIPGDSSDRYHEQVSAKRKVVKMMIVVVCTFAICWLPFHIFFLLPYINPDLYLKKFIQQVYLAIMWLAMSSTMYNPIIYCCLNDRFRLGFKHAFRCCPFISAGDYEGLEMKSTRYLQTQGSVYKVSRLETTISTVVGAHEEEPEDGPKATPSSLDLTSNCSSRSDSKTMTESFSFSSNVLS

[2] = biological target: T1, Cholecystokinin receptor type A (Homo sapiens, UniProt P32238); assay type: cell membranes, Membrane; details: 1321-n1; note: in other assays of this panel Not Active means under 50% inhibition at 10 µM
T1 sequence (P32238 whole entry): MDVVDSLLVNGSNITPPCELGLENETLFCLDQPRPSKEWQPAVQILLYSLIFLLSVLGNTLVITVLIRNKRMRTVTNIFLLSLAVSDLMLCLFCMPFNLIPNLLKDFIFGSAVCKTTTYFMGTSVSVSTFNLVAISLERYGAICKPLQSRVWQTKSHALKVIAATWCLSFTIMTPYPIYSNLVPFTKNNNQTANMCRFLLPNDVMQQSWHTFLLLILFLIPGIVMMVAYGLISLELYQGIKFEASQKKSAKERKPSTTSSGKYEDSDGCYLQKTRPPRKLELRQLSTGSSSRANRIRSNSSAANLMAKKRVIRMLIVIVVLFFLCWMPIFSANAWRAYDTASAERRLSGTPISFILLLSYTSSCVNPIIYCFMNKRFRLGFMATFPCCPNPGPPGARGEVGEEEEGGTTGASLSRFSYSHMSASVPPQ

[3] = DRUGMATRIX: Platelet-Derived Growth Factor (PDGF) radioligand binding (ligand: [125I] PDGF); assay type: cell-based; details: nih3t3; Not Active = under 50% inhibition at 10 µM
[4] = biological target: Tyrosine-protein kinase Lck (Homo sapiens, UniProt P06239); assay: DRUGMATRIX: Protein Tyrosine Kinase, LCK enzyme inhibition (substrate: Poly(Glu:Tyr)); assay type: cell-based, Insect cells; details: insect cells; Not Active = under 50% inhibition at 10 µM
Chain of Tyrosine-protein kinase Lck (P06239 whole entry): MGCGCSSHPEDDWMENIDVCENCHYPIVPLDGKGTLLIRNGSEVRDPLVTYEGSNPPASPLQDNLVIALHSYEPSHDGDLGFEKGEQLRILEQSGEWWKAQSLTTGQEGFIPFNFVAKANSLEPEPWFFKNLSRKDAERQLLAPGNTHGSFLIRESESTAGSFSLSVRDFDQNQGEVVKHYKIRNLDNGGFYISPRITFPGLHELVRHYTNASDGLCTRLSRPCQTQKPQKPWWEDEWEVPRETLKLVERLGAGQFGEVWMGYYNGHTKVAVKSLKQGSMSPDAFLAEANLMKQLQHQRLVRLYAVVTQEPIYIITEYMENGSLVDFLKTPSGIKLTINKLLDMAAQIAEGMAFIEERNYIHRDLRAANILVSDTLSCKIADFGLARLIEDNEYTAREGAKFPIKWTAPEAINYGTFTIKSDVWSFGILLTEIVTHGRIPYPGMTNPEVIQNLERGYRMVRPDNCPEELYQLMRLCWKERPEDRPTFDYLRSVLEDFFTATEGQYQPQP

[5] = biological target: T2, Receptor-type tyrosine-protein phosphatase C (Homo sapiens, UniProt P08575); parameters: species or system Escherichia coli;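 note: inhibition of CD45 enzyme activity measured using DiFMUP as substrate; in other assays of this panel Not Active means under 50% inhibition at 10 µM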
T2 sequence (P08575 whole entry): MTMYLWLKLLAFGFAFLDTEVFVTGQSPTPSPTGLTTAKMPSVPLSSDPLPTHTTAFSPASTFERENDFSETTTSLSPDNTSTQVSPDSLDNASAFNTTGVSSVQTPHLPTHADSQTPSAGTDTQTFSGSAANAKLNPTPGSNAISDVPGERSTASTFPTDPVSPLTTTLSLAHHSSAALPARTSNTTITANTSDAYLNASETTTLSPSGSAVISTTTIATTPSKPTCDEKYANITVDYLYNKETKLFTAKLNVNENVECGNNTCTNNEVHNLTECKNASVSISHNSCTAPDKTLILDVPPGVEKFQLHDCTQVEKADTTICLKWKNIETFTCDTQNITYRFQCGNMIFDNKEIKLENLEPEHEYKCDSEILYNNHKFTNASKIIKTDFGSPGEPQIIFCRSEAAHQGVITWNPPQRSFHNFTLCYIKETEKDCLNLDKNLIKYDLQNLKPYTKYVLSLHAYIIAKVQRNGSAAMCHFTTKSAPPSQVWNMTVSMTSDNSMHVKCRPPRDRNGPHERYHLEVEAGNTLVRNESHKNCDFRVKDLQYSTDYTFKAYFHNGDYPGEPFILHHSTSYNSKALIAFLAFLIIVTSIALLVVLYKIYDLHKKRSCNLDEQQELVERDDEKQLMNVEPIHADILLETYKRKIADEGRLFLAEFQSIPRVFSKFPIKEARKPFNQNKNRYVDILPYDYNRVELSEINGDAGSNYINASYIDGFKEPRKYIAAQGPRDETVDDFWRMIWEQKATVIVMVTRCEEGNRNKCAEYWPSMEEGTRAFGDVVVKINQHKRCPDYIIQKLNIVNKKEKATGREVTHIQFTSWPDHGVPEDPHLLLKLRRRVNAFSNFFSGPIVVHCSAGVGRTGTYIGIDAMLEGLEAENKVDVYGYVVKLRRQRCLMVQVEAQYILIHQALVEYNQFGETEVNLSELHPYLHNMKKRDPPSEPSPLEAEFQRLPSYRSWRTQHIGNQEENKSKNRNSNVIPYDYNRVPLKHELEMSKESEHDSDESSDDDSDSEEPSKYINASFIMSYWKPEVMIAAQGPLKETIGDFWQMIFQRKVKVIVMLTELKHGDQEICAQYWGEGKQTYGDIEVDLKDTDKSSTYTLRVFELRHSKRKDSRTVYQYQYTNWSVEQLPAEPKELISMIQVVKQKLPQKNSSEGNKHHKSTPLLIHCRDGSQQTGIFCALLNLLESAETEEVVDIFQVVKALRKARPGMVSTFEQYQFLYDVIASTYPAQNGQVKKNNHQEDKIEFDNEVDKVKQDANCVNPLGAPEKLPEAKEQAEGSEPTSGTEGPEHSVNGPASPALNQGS

Estrogen receptor beta = Estrogen receptor beta (Homo sapiens, UniProt Q92731); details: sf9; note: in other assays of this panel Not Active means under 50% inhibition at 10 µM
Chain of Estrogen receptor beta (Q92731 whole entry): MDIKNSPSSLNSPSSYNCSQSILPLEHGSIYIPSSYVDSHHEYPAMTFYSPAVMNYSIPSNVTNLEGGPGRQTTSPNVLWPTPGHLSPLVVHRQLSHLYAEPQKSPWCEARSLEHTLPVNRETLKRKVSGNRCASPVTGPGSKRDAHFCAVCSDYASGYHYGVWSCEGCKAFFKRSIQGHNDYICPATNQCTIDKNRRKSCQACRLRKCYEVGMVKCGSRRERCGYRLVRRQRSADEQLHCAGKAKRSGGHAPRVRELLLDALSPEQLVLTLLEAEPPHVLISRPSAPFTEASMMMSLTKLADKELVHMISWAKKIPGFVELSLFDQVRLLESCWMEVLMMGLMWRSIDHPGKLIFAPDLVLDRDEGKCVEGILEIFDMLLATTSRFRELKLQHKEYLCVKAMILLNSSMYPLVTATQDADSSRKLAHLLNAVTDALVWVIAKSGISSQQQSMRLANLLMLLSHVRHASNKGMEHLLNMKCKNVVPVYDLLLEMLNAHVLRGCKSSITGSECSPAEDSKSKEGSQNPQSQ

Glucocorticoid receptor = biological target: T3, Glucocorticoid receptor (Homo sapiens, UniProt P04150); details: hela s3; note: in other assays of this panel Not Active means under 50% inhibition at 10 µM
T3 sequence (P04150 whole entry): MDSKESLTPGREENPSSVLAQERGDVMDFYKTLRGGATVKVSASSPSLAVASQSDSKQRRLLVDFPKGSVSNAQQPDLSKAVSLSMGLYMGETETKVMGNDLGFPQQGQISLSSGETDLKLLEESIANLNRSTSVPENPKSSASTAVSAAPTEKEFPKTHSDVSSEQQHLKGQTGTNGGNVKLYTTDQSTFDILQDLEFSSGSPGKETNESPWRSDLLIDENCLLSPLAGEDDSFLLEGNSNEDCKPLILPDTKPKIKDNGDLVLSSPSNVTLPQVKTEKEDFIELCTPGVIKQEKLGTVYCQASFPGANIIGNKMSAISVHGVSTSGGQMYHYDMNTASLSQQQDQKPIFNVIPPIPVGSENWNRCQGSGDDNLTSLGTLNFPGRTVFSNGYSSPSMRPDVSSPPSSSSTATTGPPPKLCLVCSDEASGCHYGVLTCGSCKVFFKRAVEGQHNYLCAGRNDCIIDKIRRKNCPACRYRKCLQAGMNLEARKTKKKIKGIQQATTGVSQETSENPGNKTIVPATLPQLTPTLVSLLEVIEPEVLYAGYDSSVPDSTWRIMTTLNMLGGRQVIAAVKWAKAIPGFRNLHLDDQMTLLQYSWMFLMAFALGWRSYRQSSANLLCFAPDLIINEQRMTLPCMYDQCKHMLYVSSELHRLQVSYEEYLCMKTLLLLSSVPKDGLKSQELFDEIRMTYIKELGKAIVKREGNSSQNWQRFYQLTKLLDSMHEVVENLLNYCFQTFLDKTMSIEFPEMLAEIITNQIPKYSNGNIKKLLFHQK

Chain of Sodium-dependent noradrenaline transporter (P23975 whole entry): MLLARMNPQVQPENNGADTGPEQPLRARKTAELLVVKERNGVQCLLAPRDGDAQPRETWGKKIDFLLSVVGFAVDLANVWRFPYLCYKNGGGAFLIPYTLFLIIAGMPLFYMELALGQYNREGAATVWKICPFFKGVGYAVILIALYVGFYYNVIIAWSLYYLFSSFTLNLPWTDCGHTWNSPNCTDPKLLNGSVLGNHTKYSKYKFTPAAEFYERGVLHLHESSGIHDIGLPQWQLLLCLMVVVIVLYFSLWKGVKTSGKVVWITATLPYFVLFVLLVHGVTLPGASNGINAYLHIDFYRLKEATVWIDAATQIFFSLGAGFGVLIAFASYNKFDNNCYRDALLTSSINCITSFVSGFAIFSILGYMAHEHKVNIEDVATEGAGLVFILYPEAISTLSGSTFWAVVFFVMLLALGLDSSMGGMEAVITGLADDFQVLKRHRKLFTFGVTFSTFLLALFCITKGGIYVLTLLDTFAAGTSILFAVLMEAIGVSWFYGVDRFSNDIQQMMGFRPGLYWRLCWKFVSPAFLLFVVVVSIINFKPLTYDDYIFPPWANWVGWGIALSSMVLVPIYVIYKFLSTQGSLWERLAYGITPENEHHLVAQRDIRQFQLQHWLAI

| Molecule | IC50 [1] | IC50 (Substance-P receptor) | IC50 [2] | IC50 [3] | Ki [3] | IC50 [4] | IC50 [5] | IC50 (Estrogen receptor beta) | IC50 (Glucocorticoid receptor) | Ki [1] | Ki (Substance-P receptor) | Ki [2] | Ki [4] | Ki [5] | Ki (Estrogen receptor beta) | Ki (Glucocorticoid receptor) [nM] |
| --- | --- | --- | --- | --- | --- | --- | --- | --- | --- | --- | --- | --- | --- | --- | --- | --- |
| Cn1c(=O)c2c(ncn2CC(O)CO)n(C)c1=O (stereo not given) [DYPHYLLINE] | Not Active | Not Active | Not Active | Not Active | Not Active | Not Active | Not Active | Not Active | Not Active |  |  |  |  |  |  |  |
| O=C(O)c1cccnc1Nc1cccc(C(F)(F)F)c1 [NIFLUMIC ACID] | Not Active | Not Active | Not Active | Not Active | Not Active | Not Active | Not Active | Not Active | Not Active |  |  |  |  |  |  |  |
| COC(=O)Nc1nc2ccc(C(=O)c3cccs3)cc2[nH]1 [NOCODAZOLE] | Not Active | Not Active | Not Active | Not Active | Not Active | Not Active | Not Active | Not Active | Not Active |  |  |  |  |  |  |  |
| CC(C)NCC(O)COc1cccc2[nH]ccc12 (stereo not given) [PINDOLOL] | Not Active | Not Active | Not Active | Not Active | Not Active | Not Active | Not Active | Not Active | Not Active |  |  |  |  |  |  |  |
| CC(=O)O[C@H]1C(=O)[C@@]2(C)[C@H]([C@H](OC(=O)c3ccccc3)[C@]3(O)C[C@H](OC(=O)[C@H](O)[C@@H](NC(=O)c4ccccc4)c4ccccc4)C(C)=C1C3(C)C)[C@]1(OC(C)=O)CO[C@@H]1C[C@@H]2O [PACLITAXEL] | Not Active | Not Active |  | Not Active | Not Active | Not Active | Not Active | Not Active | Not Active |  |  |  |  |  |  |  |
| CCCOc1ccc(C(=O)OCCN(CC)CC)cc1N [PROPARACAINE] | Not Active | Not Active | Not Active | Not Active | Not Active | Not Active | Not Active | Not Active | Not Active |  |  |  |  |  |  |  |
| O=C(N/N=C/c1ccc([N+](=O)[O-])o1)c1cc([N+](=O)[O-])cc([N+](=O)[O-])c1O [NIFURSOL] | Not Active | Not Active | Not Active | Not Active | Not Active | Not Active | Not Active | Not Active | Not Active |  |  |  |  |  |  |  |
| CN(C)[C@@H]1C(O)=C(C(N)=O)C(=O)[C@@]2(O)C(O)=C3C(=O)c4c(O)ccc(Cl)c4[C@@](C)(O)[C@H]3C[C@@H]12 [CHLORTETRACYCLINE] | Not Active | Not Active | Not Active | Not Active | Not Active | Not Active | Not Active | Not Active | Not Active |  |  |  |  |  |  |  |
| AURANOFIN | Not Active | Not Active | Not Active | Not Active | Not Active | Not Active | Not Active | Not Active |  | Not Active | Not Active | Not Active | Not Active | Not Active | Not Active | 599 |
| COC1=C(OC)C(=O)C(CCCCCCCCCCO)=C(C)C1=O [IDEBENONE] | Not Active | Not Active | Not Active | Not Active | Not Active | Not Active | Not Active | Not Active | Not Active |  |  |  |  |  |  |  |
| Oc1cccc(O)c1O [PYROGALLOL] | Not Active | Not Active | Not Active | Not Active | Not Active | Not Active | Not Active | Not Active | Not Active |  |  |  |  |  |  |  |
| O=C1O[C@H]([C@@H](O)CO)C(O)=C1O [ASCORBIC ACID] | Not Active | Not Active | Not Active | Not Active | Not Active | Not Active | Not Active | Not Active | Not Active |  |  |  |  |  |  |  |
| NC(=O)C[S+]([O-])C(c1ccccc1)c1ccccc1 (stereo not given) [MODAFINIL] | Not Active | Not Active | Not Active | Not Active | Not Active | Not Active | Not Active | Not Active | Not Active |  |  |  |  |  |  |  |
| CCN(CC)CCOCCC1=CCC2CC1C2(C)C (stereo not given) [MYRTECAINE] | Not Active | Not Active | Not Active | Not Active | Not Active | Not Active | Not Active | Not Active | Not Active |  |  |  |  |  |  |  |
| O=c1cc(N2CCOCC2)oc2c(-c3ccccc3)cccc12 [LY-294002] | Not Active | Not Active | Not Active | Not Active | Not Active |  | Not Active | Not Active | Not Active |  |  |  |  |  |  |  |
| C[C@@H](CO)NC(=O)[C@@H]1C=C2c3cccc4[nH]cc(c34)C[C@H]2N(C)C1 [ERGONOVINE] | Not Active | Not Active |  | Not Active | Not Active | Not Active | Not Active | Not Active | Not Active |  |  |  |  |  |  |  |
| C[C@@H]1C[C@H]2[C@@H]3CCC4=CC(=O)C=C[C@]4(C)[C@@]3(F)[C@@H](O)C[C@]2(C)[C@H]1C(=O)CO [DESOXIMETASONE] | Not Active | Not Active | Not Active | Not Active | Not Active | Not Active | Not Active | Not Active |  |  |  |  |  |  |  |  |
